Laboratory results from patent US7622128B2, “Porphyromonas gingivalis 1435/1449 LPS as an immune modulator” (priority 2005, dated 2009).

Tested on: mouse bone marrow cells
Assay: Activation of bone marrow cells from TLR knockout mice (intracellular TNF-α staining, FACS)
Assay type: cell-based
Conditions: TLR2−/−, TLR4−/− and TLR2/4−/− cells
Description: The ability of this P. gingivalis LPS preparation to activate mouse bone marrow cells obtained from TLR2^−/−, TLR4^−/−, and TLR2/4^−/− knockout mice was examined to determine if endogenous TLR2 and TLR4 were utilized. Activation was determined by intracellular TNF-α staining and fluorescence-activated cell sorter analysis.

Pam3CSK4
TLR usage in bone marrow cells of knockout mice: utilized their respective cognate TLR
